One data set relates to optic nerve axons. The experiment in a line: Rat laser glaucoma model: total number of optic nerve axons (stereology). The class given is in vivo, Wistar rats. The conditions noted are these: IP daily for two weeks; for total number of optic nerve axons, lasered vs contralateral control eyes: paired sample t-test, P>0.05. How it is done: In this study, Wistar rats (n=12) were used for the experiments. The neuroprotective properties of compounds were investigated in a rat laser model of glaucoma. Rats were divided into two groups of six rats each. One group served as a placebo control receiving vehicle (NaCl) injections, and the other was treated with a peptide CGRP receptor antagonist (SEQ ID NO: 1). For all 12 rats, the contralateral, untreated eye served as a naïve undiseased control. The vehicle control and test compound (20 mg/kg) were administered systemically (IP) daily for the whole follow-up period of two weeks. The animals were sacrificed using transcardial perfusion. The retinal whole-mounts were then immuno-stained against retinal ganglion cell (RGC) marker Brn3a and astrocytic marker GFAP (glial fibrillary acidic protein). The number of Brn3a positive profiles was manually counted from retinal images taken from central and peripheral parts of retina. The total number of GFAP-immunoreactive cells (retinal astrocytes) was estimated using stereology. The total number of RGC axons in the optic nerve was estimated using stereology.
The rat glaucoma model was induced unilaterally by laser photocoagulation of episcleral veins as previously described (Kalesnykas et al., 2007). Anesthesia was performed using sodium pentobarbital (30 mg/kg). […]
2. Quantification of optic nerve axons using stereology. […]
After the optic nerves were post-fixed in 4% PFA (in 0.1M phosphate buffer, pH 7.4) solution, they were placed in 1% osmium, dehydrated in ascending alcohol concentration and placed in 1% uranyl acetate in 100% ethanol for 1 hour (Cone et al., 2012). […] Briefly, axons were counted manually using the Stereo Investigator software (MicroBrightField, VT, USA). […]
Quantitative data was graphed, analyzed and presented as mean±standard deviation (SD) or standard error of mean (SEM). Parametric data was analyzed using paired-samples T-test (the contralateral eye of the same animal serves as control). Non-parametric data was analyzed using Mann-Whitney U test (comparison of 2 groups) or Wilcoxon paired-samples T-test. […]

A further data set concerns C-nociceptors. The experiment in a line: Spontaneous activity in C-nociceptors, rat crush-induced sciatic neuropathy (microneurography). The following applies: 25 μg/Kg i.p.; for spontaneous activity in C-fibers (action potentials recorded in the sciatic nerve): after administration, FIG. 1. How it is done:
To investigate the effects of a CGRP receptor antagonist on pathological spontaneous activity in C-nociceptors the following experiments were performed on Sprague-Dawly rats. Crush-inducing sciatic neuropathy was produced in 12 male Sprague-Dawley rats. Spontaneous activity in injured C-nociceptors was then detected with microneurography and the response to CGRP receptor antagonist was assessed under unblind conditions. This study aimed to assess the effect of the CGRP receptor antagonist, on electrophysiological measures of spontaneous activity in subpopulations of injured C-nociceptors in a model of neuropathic pain, and to investigate the effects of the CGRP receptor antagonist on pathological spontaneous activity in peripheral C-nociceptors.
All surgical procedures were performed under general anesthesia (ketamine 90 mg/kg+xylazine 10 mg/kg i.p. (intraperitoneal)). The sciatic nerve was exposed at mid-thigh level. A standardized injury was produced by crushing the nerve three times in succession with a very fine point forcep at a constant point, 90 mm from the tip of the third digit. The wound was then sutured by layers and disinfected with povidone iodine. The animals received an analgesic subcutaneous (s.c). dose of buprenorphine and were maintained in a warm environment until full recovery from the anesthetic, and were allowed to recover from the nerve injury for a minimum of 70 days.
CGRP receptor antagonist (SEQ ID NO: 1) was dissolved according to manufacturer's instructions in saline solution, at a final concentration of 25 μg/Kg. Volumes of the intraperitoneal (i.p.) injected bolus ranged from 0.48 to 0.58 ml.
Animals weighing 478±36 g (mean±SD) on the day of the recording were anesthetized with ketamine (90 mg/Kg) and xylazine (10 mg/Kg) injected i.p (intraperitoneal). Repeated administrations of one-half of the initial dose were performed as required to maintain the level of anesthesia, usually every hour.
Recordings of the sciatic nerve electrical activity were obtained inserting a tungsten microelectrode (FHC, Bowdoinham, ME, USA, nominal impedance 50-100KΩ, shaft Ø 175 μm (Ø=diameter)) into the sciatic nerve trunk with the aid of a micromanipulator. The recording electrode was carefully advanced into the nerve with the micromanipulator until characteristic neural audio signal could be heard. The method follows the same principles of the microneurographic technique employed in human patients.
The neural signals were first amplified with an isolated, high input impedance amplifier, band-pass filtered (maximum range 50-5000 Hz) and passed through a noise eliminator. The signal was then fed to an AM10 audio-monitor with noise clipper (Grass Technologies, Warwick, RI, USA) and to computers running separate software for collecting spontaneous and electrically evoked activity. Electrical stimuli were delivered to the cutaneous receptive field of the units by means of a constant current stimulator (DS7A, Digitimer, Welwyn Garden City, Hertfordshire, UK).
Electrical stimuli were triggered and the responses to electrical stimulation recorded and analyzed with a PC and PCI-6221M data acquisition board (National Instruments, […], USA) running QTRAC software (©Institute of Neurology, London, UK). Spontaneous activity was digitized at 20 kHz and recorded continuously on one of the computers running LabChart software (PowerLab Systems, ADInstruments Ltd., Bella Vista, New South Wales, Australia). Analysis was performed with software written by Neuroscience Technologies, Science Park of Barcelona, Spain, to detect and quantify spontaneous activity.
Trigger pulses were delivered to the stimulator at different frequencies necessary to induce ADS of conduction velocity of the recorded C-fibers. The digitized responses were stored on computer as raw data for off-line analysis.

Where [1] appears, read: 10 min before vs 10 min after administration, paired t-test, listed as CGRP receptor antagonist.

Entries after “also recorded” stand apart in the source; their conditions may differ.

For “NH2-Ala-Cys-Asp-Thr-Ala-Ala-Cys-Val-Leu-Gly-Arg-Leu-Ser-Gln-Glu-Leu-His-Arg-Leu-Gln-Thr-Tyr-Pro-Arg-Thr-Asn-Val-Gly-Ser-Lys-Ala-Phe-NH2 (H-ACDTAACVLGRLSQELHRLQTYPRTNVGSKAF-NH2; ends and bridges not checked) [SEQ ID NO: 1]”, the “total number of optic nerve axons, increase vs optic nerves from contralateral control eyes” value in the data set with optic nerve axons (increase) was 1.7%. Moreover, the “total number of optic nerve axons, lasered vs contralateral control eyes” value is reported as “did not differ significantly; also recorded: smallest decrease in the total number of axons” in the data set with optic nerve axons and “slight increase” with optic nerve axons (listed as CGRP antagonist). In addition, in the data set on C-nociceptors (setting [1]), the “SLI/10 min (Significant Latency Increase)” value was “did not reveal a statistically significant effect; also recorded: No significant differences were observed”. The “TI (%) (Total Increase)” value in the data set with C-nociceptors (setting [1]) is recorded as “did not reveal a statistically significant effect; also recorded: No significant differences were observed”. In addition, the “spontaneous activity in C-fibers (action potentials recorded in the sciatic nerve)” value is “preventing further spontaneous activity in the C-fibers” in the data set on C-nociceptors (rat crush sciatic neuropathy) and “virtually no excitation observed” in the data set on C-nociceptors (rat crush sciatic neuropathy, listed as CGRP receptor antagonist). Further, the “spontaneous activity at long intervals after the administration” value in the data set with C-nociceptors (rat crush sciatic neuropathy, up to 90 min) is reported as “less spontaneous activity”. Moreover, the Morbidity and mortality result in the data set with C-nociceptors (rats, whole procedure) is given as “in good condition during the whole procedure”.

The values above are taken from patent publication US12103951B2, “Use of CGRP receptor antagonists in neuroprotection and neurological disorders” (priority 2016, dated 2024).
